Reference: paper PMC8530378, “Comparison of: (2S,4R)-4-[^18F]Fluoroglutamine, [^11C]Methionine, and 2-Deoxy-2-[^18F]Fluoro-D-Glucose and Two Small-Animal PET/CT Systems Imaging Rat Gliomas” (Frontiers in Oncology, 2021)
Each block holds one molecule with its values, some of them ahead of it.

Columns and labels:
orthotopic BT4C gliomas = test: Dynamic PET/CT imaging of orthotopic BT4C gliomas, tumor-to-healthy brain uptake ratio (TBR); type: in vivo; details: dynamic PET images, both cameras pooled, BT4C glioma-bearing BDIX rats
Experimental: The 16 glioma-bearing BDIX-Ifz rats (herein "BDIX") for imaging studies (8 weeks old, 9 males and 7 females) were anesthetized under 2-2.5% isoflurane and given buprenorphine (0.01 mg/kg) and carprofen (5 mg/kg) for analgesia during surgery. […] All animals were sacrificed after either the final imaging (PET studies) or the final blood sample collection (metabolism studies) under deep isoflurane anesthesia (4%) via cervical dislocation after cardiac puncture to collect terminal blood samples. […] The injected amount of radioactivity also varied based on camera and radionuclide. […] Each PET image was separately examined, in the initial 20 s of frames for the amino-acid-based radiopharmaceuticals and 40-60 min frames for [^18F]FDG, to manually delineate heart left ventricle cavity voxels to use as a blood radioactivity estimation region of interest (ROI). […] The dynamic PET image data was then extracted from each separate image and converted to standardized uptake values (SUV) which account for ROI volume, mean ROI radioactivity, subject weight, and total injected radioactivity dose (corrected for decay, residual syringe and cannula radioactivity). The results are shown as SUV ROI radioactivity curves over time as well as tumor-to-healthy brain region (TBR) ratios for improved comparisons. […]

BT4C gliomas = test: Ex vivo brain autoradiography, tumor-to-healthy brain uptake ratio; type: in vivo; details: ex vivo autoradiography of brain slices, BT4C glioma-bearing BDIX rats
Experimental: Ex vivo biodistribution studies were performed for [^18F]FGln with a complete organ list and results are listed in the Supplementary Material Some subjects from each radiopharmaceutical imaging group were sacrificed for autoradiographical and histological studies immediately after PET imaging. All autoradiography images were analyzed with Carimas software (Turku PET Centre, Turku, Finland).
The excised brains containing tumors were frozen with liquid nitrogen, sectioned with a Leica CM3050S cryotome into alternating 20 and 8 µm slices on different slides for hematoxylin/eosin and future histochemical staining respectively. […] The slides were then stained with hematoxylin/eosin and digitally scanned with a Pannoramic 250 Flash slide scanner (3DHistech, Budapest, Hungary) Autoradiographs and light micrographs were then aligned in Carimas software (Turku PET Centre, Turku, Finland) and analyzed therein.

[1] = [^18F]FGln in vivo stability analysis (bioavailable fraction of whole blood radioactivity); details: both sexes, BDIX, rat, 40 MBq, healthy BDIX rats, approximately 60 min post-injection, n = 10, read-out: Bioavailable [^18F]FGln-fraction of total blood radioactivity
Experimental: Additional healthy BDIX rats (n = 10, 5 male, 5 female) were injected with approximately 40 MBq of [^18F]FGln and 150–200 µL aliquots of blood drawn at 5, 15, 30, 45, and 60 min into a heparin coated vial at 5°C to be assayed. During the final 60 min collection time point, animals were sacrificed under deep anesthesia via cardiac puncture and cervical dislocation. All radioactivity measurements were performed with a 3″ Nal system (Triathler, Hidex Oy, Turku Finland). Whole blood was weighed and measured for radioactivity before being centrifuged at 700 ×g and 4°C for 5 min. The plasma was separated out before being weighed and gamma counted followed by storage on ice for the later described assays. Hematocrit values used were averaged separately for male and female populations with five samples for each group. The following Equation 1 ([23]) was then used to calculate the radioactivity fraction taken up by the red blood cells and the available plasma fraction to avoid including plasma contamination in the blood cell fraction: […]
Where C = radioactivity concentration, ρ = density, RBC = red blood cell, and HCT = hematocrit. […]
Plasma aliquots (80 µL) were then precipitated with methanol (200 µL) before being vortexed thoroughly and centrifuged at 11,000 ×g for 10 min. The two fractions were separated and measured for radioactivity to calculate the unbound radioactivity fraction of the plasma. […]

[2] = test system: BT4C glioma and healthy brain ROIs; test: Logan plot (reversible uptake model) of dynamic [^18F]FGln PET; type: in vivo, BDIX rats; details: n = 13; for DV (AB): arterial blood radioactivity input; for DV (P): unbound plasma radioactivity fraction input
Description: (§1) The dynamic PET image data was then extracted from each separate image and converted to standardized uptake values (SUV) which account for ROI volume, mean ROI radioactivity, subject weight, and total injected radioactivity dose (corrected for decay, residual syringe and cannula radioactivity). The results are shown as SUV ROI radioactivity curves over time as well as tumor-to-healthy brain region (TBR) ratios for improved comparisons. [^18F]FGln uptake data and blood radioactivity data (corrected for bioavailability fraction over time) were also input into multiple pharmacokinetic models described in the "[^18F]FGln Pharmacokinetic Modeling" section.
(§2) Blood input values from the heart left ventricle ROI in the PET image data were corrected for bioavailable fraction with Eqn. 2. Logan ([25]), Patlak ([26]), and two two-compartment models ([27]) (reversible and irreversible) were applied to whole-blood, unbound plasma fraction, and unbound plasma fraction assayed for parent-radiopharmaceutical purity as inputs for tumor and healthy brain ROIs. Mean, standard deviation, and two-tailed unpaired Student's t-test (for camera comparison, modeling values, and gender differences) p-values are reported where applicable.

[3] = test system: BT4C glioma and healthy brain ROIs; test: Patlak plot (irreversible uptake model) of dynamic [^18F]FGln PET; type: in vivo, BDIX rats; details: n = 13; for Ic (AB) y intercept: arterial blood input; for Ic (FP) y intercept: free parent plasma input; for Ic (P) y intercept: unbound plasma input
Description: as §1, §2

[4] = test system: BT4C glioma and healthy brain ROIs; test: Reversible two-tissue compartment model of dynamic [^18F]FGln PET; type: in vivo, BDIX rats; details: reversible 2-tissue model, n = 13; for K1 (AB) plasma to tissue transport rate / K1/k2 (AB) equilibrium distribution volume / k3 (AB) rate constant / k3/k4 (AB): arterial blood input; for K1 (FP) plasma to tissue transport rate / K1/k2 (FP) equilibrium distribution volume / k3 (FP) rate constant / k3/k4 (FP): free parent plasma input; for K1 (P) plasma to tissue transport rate / K1/k2 (P) equilibrium distribution volume / k3 (P) rate constant / k3/k4 (P): unbound plasma input
Description: as §1, §2

[5] = test system: BT4C glioma and healthy brain ROIs; test: Irreversible two-tissue compartment model of dynamic [^18F]FGln PET; type: in vivo, BDIX rats; details: irreversible 2-tissue model, n = 13; for K1 (AB) plasma to tissue transport rate / K1/k2 (AB) equilibrium distribution volume / k3 (AB) rate constant / k3/(k2+k3) (AB): arterial blood input; for K1 (FP) plasma to tissue transport rate / K1/k2 (FP) equilibrium distribution volume / k3 (FP) rate constant / k3/(k2+k3) (FP): free parent plasma input; for K1 (P) plasma to tissue transport rate / K1/k2 (P) equilibrium distribution volume / k3 (P) rate constant / k3/(k2+k3) (P): unbound plasma input
Description: as §1, §2

Average tumor-to-healthy brain tissue uptake ratio (TBR), maximum (orthotopic BT4C gliomas): 1.41 ± 0.11 | Tumor-to-healthy brain uptake ratio (BT4C gliomas): 2.93 ± 0.57
Molecule: 2-deoxy-2-[^18F]fluoro-D-glucose [[^18F]FDG]

Average tumor-to-healthy brain tissue uptake ratio (TBR), maximum (orthotopic BT4C gliomas): 1.99 ± 0.19 | bioavailability at 60 min [1]: 28.1% | Tumor DV/Healthy Brain DV (FP) ([2]; free parent plasma input): 2.31 ± 0.40 | DV (AB) ([2]; healthy brain ROI): 0.66 ± 0.19 | DV (FP) ([2]; healthy brain ROI, free parent plasma input): 1.72 ± 0.66 | DV (P) ([2]; healthy brain ROI): 0.48 ± 0.14 | DV (AB) ([2]; tumor ROI): 1.35 ± 0.36 | DV (FP) ([2]; tumor ROI, free parent plasma input): 4.00 ± 1.96 | DV (P) ([2]; tumor ROI): 1.00 ± 0.30 | Ic (AB) y intercept ([3]; healthy brain): 0.376 ± 0.114 | Ic (FP) y intercept ([3]; healthy brain): 0.495 ± 0.195 | Ic (P) y intercept ([3]; healthy brain): 0.236 ± 0.076 | Ic (AB) y intercept ([3]; tumor): 0.676 ± 0.221 | Ic (FP) y intercept ([3]; tumor): 0.823 ± 0.376 | Ic (P) y intercept ([3]; tumor): 0.418 ± 0.149 | K1 (AB) plasma to tissue transport rate ([4]; healthy brain): 0.118 ± 0.132 mL min^-1 mL^-1 | K1/k2 (AB) equilibrium distribution volume ([4]; healthy brain): 0.248 ± 0.128 mL mL^-1 | k3 (AB) rate constant ([4]; healthy brain): 0.060 ± 0.039 min⁻¹ | k3/k4 (AB) ([4]; healthy brain): 3.279 ± 1.395 min min^-1 | K1 (FP) plasma to tissue transport rate ([4]; healthy brain): 0.033 ± 0.023 mL min^-1 mL^-1 | K1/k2 (FP) equilibrium distribution volume ([4]; healthy brain): 0.528 ± 0.363 mL mL^-1 | k3 (FP) rate constant ([4]; healthy brain): 0.196 ± 0.354 min⁻¹ | k3/k4 (FP) ([4]; healthy brain): 4.462 ± 1.312 min min^-1 | K1 (P) plasma to tissue transport rate ([4]; healthy brain): 0.041 ± 0.031 mL min^-1 mL^-1 | K1/k2 (P) equilibrium distribution volume ([4]; healthy brain): 0.137 ± 0.062 mL mL^-1 | k3 (P) rate constant ([4]; healthy brain): 0.086 ± 0.039 min⁻¹ | k3/k4 (P) ([4]; healthy brain): 4.021 ± 1.249 min min^-1 | K1 (AB) plasma to tissue transport rate ([4]; tumor): 0.133 ± 0.079 mL min^-1 mL^-1 | K1/k2 (AB) equilibrium distribution volume ([4]; tumor): 0.551 ± 0.221 mL mL^-1 | k3 (AB) rate constant ([4]; tumor): 0.073 ± 0.054 min⁻¹ | k3/k4 (AB) ([4]; tumor): 2.901 ± 1.331 min min^-1 | K1 (FP) plasma to tissue transport rate ([4]; tumor): 0.057 ± 0.023 mL min^-1 mL^-1 | K1/k2 (FP) equilibrium distribution volume ([4]; tumor): 1.646 ± 2.403 mL mL^-1 | k3 (FP) rate constant ([4]; tumor): 0.291 ± 0.481 min⁻¹ | k3/k4 (FP) ([4]; tumor): 4.466 ± 1.378 min min^-1 | K1 (P) plasma to tissue transport rate ([4]; tumor): 0.052 ± 0.026 mL min^-1 mL^-1 | K1/k2 (P) equilibrium distribution volume ([4]; tumor): 0.331 ±0.125 mL mL^-1 | k3 (P) rate constant ([4]; tumor): 0.231 ± 0.478 min⁻¹ | k3/k4 (P) ([4]; tumor): 3.191 ± 1.559 min min^-1 | K1 (AB) plasma to tissue transport rate ([5]; healthy brain): 0.063 ± 0.053 mL min^-1 mL^-1 | K1/k2 (AB) equilibrium distribution volume ([5]; healthy brain): 0.338 ± 0.159 mL mL^-1 | k3 (AB) rate constant ([5]; healthy brain): 0.022 ± 0.010 min⁻¹ | k3/(k2+k3) (AB) ([5]; healthy brain): 0.126 ± 0.068 min min^-1 | K1 (FP) plasma to tissue transport rate ([5]; healthy brain): 0.033 ± 0.018 mL min^-1 mL^-1 | K1/k2 (FP) equilibrium distribution volume ([5]; healthy brain): 0.524 ± 0.324 mL mL^-1 | k3 (FP) rate constant ([5]; healthy brain): 0.064 ± 0.063 min⁻¹ | k3/(k2+k3) (FP) ([5]; healthy brain): 0.420 ± 0.146 min min^-1 | K1 (P) plasma to tissue transport rate ([5]; healthy brain): 0.024 ± 0.017 mL min^-1 mL^-1 | K1/k2 (P) equilibrium distribution volume ([5]; healthy brain): 0.221 ± 0.105 mL mL^-1 | k3 (P) rate constant ([5]; healthy brain): 0.028 ± 0.014 min⁻¹ | k3/(k2+k3) (P) ([5]; healthy brain): 0.215 ± 0.096 min min^-1 | K1 (AB) plasma to tissue transport rate ([5]; tumor): 0.088 ± 0.039 mL min^-1 mL^-1 | K1/k2 (AB) equilibrium distribution volume ([5]; tumor): 0.876 ± 0.29 mL mL^-1 | k3 (AB) rate constant ([5]; tumor): 0.017 ± 0.005 min⁻¹ | k3/(k2+k3) (AB) ([5]; tumor): 0.156 ± 0.078 min min^-1 | K1 (FP) plasma to tissue transport rate ([5]; tumor): 0.083 ± 0.113 mL min^-1 mL^-1 | K1/k2 (FP) equilibrium distribution volume ([5]; tumor): 1.841 ± 0.967 mL mL^-1 | k3 (FP) rate constant ([5]; tumor): 0.105 ± 0.246 min⁻¹ | k3/(k2+k3) (FP) ([5]; tumor): 0.385 ± 0.157 min min^-1 | K1 (P) plasma to tissue transport rate ([5]; tumor): 0.037 ± 0.015 mL min^-1 mL^-1 | K1/k2 (P) equilibrium distribution volume ([5]; tumor): 0.685 ± 0.330 mL mL^-1 | k3 (P) rate constant ([5]; tumor): 0.017 ± 0.007 min⁻¹ | k3/(k2+k3) (P) ([5]; tumor): 0.226 ± 0.078 min min^-1 | Tumor-to-healthy brain uptake ratio (BT4C gliomas): 4.07 ± 0.49
Molecule: NC(=O)[C@H]([18F])C[C@H](N)C(=O)O [[^18F]FGln, (2S,4R)-4-[^18F]Fluoroglutamine]
